Laboratory results published in ChEMBL document CHEMBL1134431, “Chemoenzymatic synthesis of functionalized cyclohexylglycines and alpha-methylcyclohexylglycines via Kazmaier-Claisen rearrangement” (Bioorg Med Chem Lett, 2001).

How the values were obtained:
Stromelysin-1 = Stromelysin-1 (Homo sapiens, UniProt P08254); assay: Inhibition of Stromelysin (Matrix metalloprotease-3)
[1] = target: 72 kDa type IV collagenase (Homo sapiens, UniProt P08253); assay: Inhibition of gelatinase A (Matrix metalloprotease-2)
72 kDa type IV collagenase, sequence (P08253 whole entry): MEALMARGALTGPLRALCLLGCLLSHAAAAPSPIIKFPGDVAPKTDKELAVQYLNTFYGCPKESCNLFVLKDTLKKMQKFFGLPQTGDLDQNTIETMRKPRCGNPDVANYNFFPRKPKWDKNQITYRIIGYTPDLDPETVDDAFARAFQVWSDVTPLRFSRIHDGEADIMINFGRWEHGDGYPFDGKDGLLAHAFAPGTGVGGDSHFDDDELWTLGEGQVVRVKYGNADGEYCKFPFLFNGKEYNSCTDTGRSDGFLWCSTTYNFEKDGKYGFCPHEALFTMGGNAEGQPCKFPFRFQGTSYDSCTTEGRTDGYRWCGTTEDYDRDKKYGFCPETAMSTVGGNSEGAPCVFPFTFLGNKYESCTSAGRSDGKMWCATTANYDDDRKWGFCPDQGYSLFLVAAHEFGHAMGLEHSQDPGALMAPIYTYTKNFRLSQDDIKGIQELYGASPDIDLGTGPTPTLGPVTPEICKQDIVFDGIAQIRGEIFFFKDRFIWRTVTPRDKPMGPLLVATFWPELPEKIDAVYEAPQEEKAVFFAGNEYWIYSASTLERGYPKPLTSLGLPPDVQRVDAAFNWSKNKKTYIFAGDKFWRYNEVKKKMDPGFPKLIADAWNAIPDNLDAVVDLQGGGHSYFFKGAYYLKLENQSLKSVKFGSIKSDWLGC

Collagenase 3 = Collagenase 3 (Homo sapiens, UniProt P45452); assay: Inhibition of Collagenase 3 (Matrix metalloprotease-13)

Stromelysin-1, sequence (P08254 whole entry): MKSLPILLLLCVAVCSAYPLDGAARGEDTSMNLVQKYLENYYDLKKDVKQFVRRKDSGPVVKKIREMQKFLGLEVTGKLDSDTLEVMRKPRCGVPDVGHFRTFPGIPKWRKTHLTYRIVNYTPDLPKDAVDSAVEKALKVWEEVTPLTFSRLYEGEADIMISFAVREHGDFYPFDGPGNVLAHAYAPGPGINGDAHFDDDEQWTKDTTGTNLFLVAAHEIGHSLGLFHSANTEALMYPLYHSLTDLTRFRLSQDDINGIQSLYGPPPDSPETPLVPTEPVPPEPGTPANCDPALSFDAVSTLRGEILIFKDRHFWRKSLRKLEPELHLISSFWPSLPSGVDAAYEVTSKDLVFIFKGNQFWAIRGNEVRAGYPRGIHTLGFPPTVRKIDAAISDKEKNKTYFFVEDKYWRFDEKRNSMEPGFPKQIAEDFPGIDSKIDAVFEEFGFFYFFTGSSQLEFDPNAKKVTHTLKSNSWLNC

`COc1ccc(-c2ccc(S(=O)(=O)N[C@@H](C(=O)O)C3C=C[C@@H](O)CC3)cc2)cc1` (some centres not stated) was tested, and the IC50 (Stromelysin-1) was 2490 nM, the IC50 [1] was 20 nM and the IC50 (Collagenase 3) was 176 nM.

With `COc1ccc(-c2ccc(S(=O)(=O)N[C@@H](C(=O)O)C3CC[C@H](O)C=C3Br)cc2)cc1` (some centres not stated) the IC50 (Stromelysin-1) was 3800 nM, the IC50 [1] was 38 nM and the IC50 (Collagenase 3) was 131 nM.

`COc1ccc(-c2ccc(S(=O)(=O)N[C@@H](C(=O)O)C3CCC(O)CC3)cc2)cc1` (some centres not stated) was tested, and the IC50 (Stromelysin-1) was 1220 nM, the IC50 [1] was 12 nM and the IC50 (Collagenase 3) was 30 nM.

`COc1ccc(-c2ccc(S(=O)(=O)N[C@@](C)(C(=O)O)C3CCC(O)CC3)cc2)cc1` (some centres not stated) showed an IC50 (Stromelysin-1) of 6150 nM, an IC50 [1] of 251 nM and an IC50 (Collagenase 3) of 338 nM.
